Source: patent publication US20260035339A1, “TETRAHYDRONAPHTHALENE DERIVATIVE” (ATRANSEN PHARMA LTD., priority 2022, published 2026)

Key:
Format in all cases: cell-based
human LAT1 [1] = target: T1, human LAT1 (Homo sapiens, UniProt Q01650); test: [14C]L-leucine uptake inhibition test using human-LAT1 stably expressing HEK293 cell line; set-up: having full-length cDNA of human LAT1 or LAT2 inserted under a promoter of CMV; expressed in transfected cells; key to Assay Data: degree of [14C]L-leucine uptake inhibition compared with BCH: a test compound having a higher inhibitory effect than BCH is denoted by A; a test compound having the same inhibitory effect as BCH is denoted by B; a test compound having a lower inhibitory effect than BCH is denoted by C; settings: for Assay Data: degree of [14C]L-leucine uptake inhibition compared with BCH: compound (racemic form) and BCH at 0.1, 1.0, 10 μM, 1 μM [14C]L-leucine, 1 minute, Na+-free HBSS; for LAT1 inhibitory effect, compounds singled out (in words): same test as Table 1
T1 sequence (Q01650 whole entry): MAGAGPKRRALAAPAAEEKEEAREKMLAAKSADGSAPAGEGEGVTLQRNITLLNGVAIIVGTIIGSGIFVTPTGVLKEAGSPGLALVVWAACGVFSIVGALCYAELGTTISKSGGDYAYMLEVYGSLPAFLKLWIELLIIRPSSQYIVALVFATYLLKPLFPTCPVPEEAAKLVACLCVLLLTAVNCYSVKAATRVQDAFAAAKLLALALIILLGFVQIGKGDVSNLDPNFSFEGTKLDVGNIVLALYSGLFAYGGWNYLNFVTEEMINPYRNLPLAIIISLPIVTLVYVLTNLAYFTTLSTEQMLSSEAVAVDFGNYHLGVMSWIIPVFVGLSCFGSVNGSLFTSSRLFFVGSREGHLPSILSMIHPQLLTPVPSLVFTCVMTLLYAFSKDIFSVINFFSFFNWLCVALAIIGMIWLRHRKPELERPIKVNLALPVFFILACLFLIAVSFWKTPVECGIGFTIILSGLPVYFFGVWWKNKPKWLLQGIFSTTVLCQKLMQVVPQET
T1 sequence (P08195 102-630 partner): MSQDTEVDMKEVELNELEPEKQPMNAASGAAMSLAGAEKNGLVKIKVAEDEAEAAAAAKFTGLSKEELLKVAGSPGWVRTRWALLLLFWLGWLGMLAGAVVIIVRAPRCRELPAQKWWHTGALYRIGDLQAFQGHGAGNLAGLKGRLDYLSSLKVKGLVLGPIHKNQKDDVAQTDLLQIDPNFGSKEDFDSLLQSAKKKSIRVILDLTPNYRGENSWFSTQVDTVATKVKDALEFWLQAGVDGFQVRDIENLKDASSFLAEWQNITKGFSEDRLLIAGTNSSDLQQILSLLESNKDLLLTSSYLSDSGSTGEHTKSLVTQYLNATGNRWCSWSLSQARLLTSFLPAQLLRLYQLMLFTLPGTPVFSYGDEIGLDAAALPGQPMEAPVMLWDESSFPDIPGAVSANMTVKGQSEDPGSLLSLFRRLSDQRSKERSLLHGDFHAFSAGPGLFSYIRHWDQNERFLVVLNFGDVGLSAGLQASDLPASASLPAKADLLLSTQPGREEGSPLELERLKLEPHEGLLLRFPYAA
Text: HEK293 cells stably expressing human LAT1 and LAT2 were produced, respectively.
A shuttle vector DNA (LAT1: pcDNA3.1(+) -hLAT1, LAT2: pcDNA3.1(+) -hLAT2; expression vector pcDNA3.1 (+) was produced by Invitrogen Corp.) having ampicillin and neomycin resistance markers and having full-length cDNA of human LAT1 or LAT2 inserted under a promoter of CMV (cytomegalovirus) was constructed. This vector was transfected into the HEK293 cells by a method using Lipofectamine (registered trademark) 2000 (Invitrogen Corp.) according to the manufacturer's instructions. Thereafter, stably expressing cell clones of transgene were selected by a limiting dilution method in the presence of 0.9 mg/mL of Geneticin (registered trademark), and among the obtained cell clones, cell clones having a high uptake of [^14C]L-leucine and maintaining stable expression even after 10 passages were obtained. These cells were used for evaluating affinity and selectivity for LAT1 and LAT2.
1-1. It has been confirmed that LAT1 is responsible for L-leucine uptake in the absence of sodium ions in the human-LAT1 stably expressing HEK293 cell line. The human-LAT1 stably expressing HEK293 cell line was seeded in a 24-well plate at 1×10^5 Cell/Well, and the [^14C]L-leucine uptake inhibition test using the compound was performed after 48 hours. After the medium was removed and the cells were washed with Hank's balanced salt solution (Na^+-free HBSS) not containing sodium ions, the cells were cultured in Na^+-free HBSS for 10 minutes. Thereafter, 1 μM of [^14C]L-leucine was taken up in Na^+-free HBSS in the presence of a test compound (0.1, 1.0, 10, 0 μM in each case), which is a racemic form, for 1 minute, and then the cells were washed three times with ice-cooled Na^+-free HBSS. To the well, 500 μL of 1 M NaOH was added, and after 30 minutes, the cells were lysed, and the cell lysate was collected. The amount of [^14C]L-leucine in the cell lysate was determined using a liquid scintillator. The amount of protein in the cell lysate was measured using BCA Assay Kit (Thermofisher Scientific), and the uptake amount of [^14C]L-leucine per 1 mg of protein in the cell per minute was calculated.
The degree of LAT1 inhibition of the compound obtained in the present invention was compared with BCH (BCH, 2-aminobicyclo-(2,2,1)-heptane-2-carboxylic acid), which is an existing LAT1 inhibitor. In the [^14C]L-leucine uptake inhibition test described above, the degrees of inhibition of [^14C]L-leucine uptake inhibition using the compound (racemic form) obtained in Examples and BCH (0.1, 1.0, 10, 0 μM for both) were compared. […] In the table, a test compound having a higher inhibitory effect than BCH is denoted by A, a test compound having the same inhibitory effect as BCH is denoted by B, and a test compound having a lower inhibitory effect than BCH is denoted by C.

human LAT1 [2] = target: T1, human LAT1; test: Leucine uptake persistence inhibitory effect after compound removal in human-LAT1 highly expressing cell line; settings: 20 μM compound for 30 minutes, removed, uptake measured 30 minutes later
Protocol: The uptake of [^14C]L-leucine remaining after the compound of the present invention was caused to act in advance and removed in the human-LAT1 highly expressing cell line was examined. In the same manner as in the uptake inhibition test, the cell line was seeded in a 24-well plate, and an MEM (Minimum Essential Medium) medium containing 20 μM of the compound (racemic form) was added to the wells and allowed to act for 30 minutes. An MEM medium containing no compound was used as a control. After the compound was caused to act, the cells were washed 3 times with the MEM medium and cultured in the MEM medium for an additional 30 minutes. Thereafter, washing was performed 3 times with Na^+Free-HBSS, and 1 μM of [^14C]L-leucine dissolved in Na^+Free-HBSS was taken up for 1 minute. The cells were washed 3 times with ice-cooled Na^+Free-HBSS, and the amount of [^14C]L-leucine taken up in the cells was determined with a liquid scintillator. In the same manner as in other tests, the amount of protein in the cell fluid was measured, and the uptake amount of [^14C]L-leucine per 1 mg of protein in the cell fluid per minute was determined.

[3] = tested on: Mouse colorectal cancer-derived CT26 cells; test: Cell proliferation inhibitory effect using mouse colorectal cancer cells (CCK-8 assay); settings: 72 hours compound treatment, read-out: Evaluation of IC50 (proliferation inhibition rate of 50%)
Protocol: Mouse colorectal cancer-derived CT26 cells were adjusted to […], seeded in a 96-well plate at 1000 cells/well, and cultured in a 10% fetal bovine serum-added RPMI 1640 medium at 5% CO2 and 37° C. The culture medium was changed 24 hours after the start of the culture, and the medium containing the compound of Example was replaced to examine the action of the compound on cell proliferation. As the compound, a concentration of 0.01, 0.03, 0.1, 0.3, 1, 3, 10, or 30 μM was used. As a control, the cells were cultured in a medium containing no compound. The number of cells was evaluated by CCK-8 assay (Cell Counting Kit-8, DOJINDO LABORATORIES) 72 hours after the start of the compound treatment, and the compound concentration (IC50 value) giving a proliferation inhibition rate of 50% as compared with the control was calculated.

| Assay Data: degree of [14C]L-leucine uptake inhibition compared with BCH (human LAT1 [1]) | sustained LAT1 inhibitory effect as compared with Example 1-1 (human LAT1 [2]) | IC50 [3] [nM] | LAT1 inhibitory effect, compounds singled out (in words) (human LAT1 [1]) | SMILES |
| --- | --- | --- | --- | --- |
| A | more remarkable effect | ≤ 900 | – | Cl.NC1(C(=O)O)CCc2ccc(Oc3ccccc3-c3cccc4ccccc34)cc2C1 (stereo not shown) [Example 1-35, 2-Carboxy-7-(2-(naphthalen-1-yl)phenoxy)-1,2,3,4-tetrahydronaphthalene-2-aminium chloride] |
| A | more remarkable effect | ≤ 900 | – | Cl.NC1(C(=O)O)CCc2ccc(Oc3ccccc3-c3ccc(F)c(Cl)c3)cc2C1 (stereo not shown) [Example 1-48, 2-carboxy-7-((3′-Chloro-4′-fluoro-[1,1′-biphenyl]-2-yl)oxy)-1,2,3,4-tetrahydronaphthalene-2-aminium chloride] |
| A | more remarkable effect | ≤ 900 | – | Cc1cccc(-c2ccccc2Oc2ccc3c(c2)CC(N)(C(=O)O)CC3)c1.Cl (stereo not shown) [Example 1-43, 2-carboxy-7-((3′-methyl-[1,1′-biphenyl]-2-yl)oxy)-1,2,3,4-tetrahydronaphthalene-2-aminium chloride] |
| A | more remarkable effect | ≤ 900 | particularly remarkable effects | Cl.NC1(C(=O)O)CCc2ccc(Oc3ccccc3-c3ccc(F)c(F)c3F)cc2C1 (stereo not shown) [Example 1-58, 2-carboxy-7-((2′,3′,4′-trifluoro-[1,1′-biphenyl]-2-yl)oxy)-1,2,3,4-tetrahydronaphthalene-2-aminium chloride] |
| A | more remarkable effect | ≤ 900 | particularly remarkable effects | Cl.NC1(C(=O)O)CCc2ccc(Oc3ccccc3-c3cccc(Cl)c3F)cc2C1 (stereo not shown) [Example 1-54, 2-carboxy-7-((3′-Chloro-2′-fluoro-[1,1′-biphenyl]-2-yl)oxy)-1,2,3,4-tetrahydronaphthalene-2-aminium chloride] |
| A | more remarkable effect | ≤ 900 | particularly remarkable effects | Cc1cccc2cccc(Oc3ccc4c(c3)CC(N)(C(=O)O)CC4)c12.Cl (stereo not shown) [Example 1-46, 2-carboxy-7-((8-methylnaphthalen-1-yl)oxy)-1,2,3,4-tetrahydronaphthalene-2-aminium chloride] |
| A | more remarkable effect | ≤ 900 | particularly remarkable effects | Cl.NC1(C(=O)O)CCc2ccc(Oc3ccccc3-c3cc(F)cc(F)c3F)cc2C1 (stereo not shown) [Example 1-63, 2-carboxy-7-((2′,3′,5′-trifluoro-[1,1′-biphenyl]-2-yl)oxy)-1,2,3,4-tetrahydronaphthalene-2-aminium chloride] |
| A | more remarkable effect | ≤ 900 | – | CSc1cccc(-c2ccccc2Oc2ccc3c(c2)CC(N)(C(=O)O)CC3)c1.Cl (stereo not shown) [Example 1-52, 2-Carboxy-7-((3′-(methylthio)-[1,1′-biphenyl]-2-yl)oxy)-1,2,3,4-tetrahydronaphthalene-2-aminium chloride] |
| A | more remarkable effect | ≤ 900 | – | Cl.NC1(C(=O)O)CCc2ccc(Oc3ccccc3-c3cccc(F)c3Cl)cc2C1 (stereo not shown) [Example 1-49, 2-Carboxy-7-((2′-Chloro-3′-fluoro-[1,1′-biphenyl]-2-yl)oxy)-1,2,3,4-tetrahydronaphthalene-2-aminium chloride] |
| A | more remarkable effect | ≤ 900 | – | CN(C)c1cccc(-c2ccccc2Oc2ccc3c(c2)CC(N)(C(=O)O)CC3)c1.Cl.Cl (stereo not shown) [Example 1-50, 2-Carboxy-7-((3′-(Dimethylammonio)-[1,1′-biphenyl]-2-yl)oxy)-1,2,3,4-tetrahydronaphthalene-2-aminium chloride] |
| A | more remarkable effect | ≤ 900 | particularly remarkable effects | Cc1cccc(-c2ccccc2Oc2ccc3c(c2)CC(N)(C(=O)O)CC3)c1F.Cl (stereo not shown) [Example 1-55, 2-Carboxy-7-((2′-fluoro-3′-methyl-[1,1′-biphenyl]-2-yl)oxy)-1,2,3,4-tetrahydronaphthalene-2-aminium chloride] |
| A | – | ≤ 900 | – | Cl.NC1(C(=O)O)CCc2ccc(Oc3ccccc3-c3ccccc3)cc2C1 (stereo not shown) [Example 1-16, 7-([1,1′-biphenyl]-2-yloxy)-2-carboxy-1,2,3,4-tetrahydronaphthalene-2-aminium chloride] |
| A | – | ≤ 900 | – | Cl.NC1(C(=O)O)CCc2ccc(Oc3ccc([N+](=O)[O-])cc3-c3cccc4ccccc34)cc2C1 (stereo not shown) [Example 1-69, 2-Carboxy-7-(2-(naphthalen-1-yl)-4-nitrophenoxy)-1,2,3,4-tetrahydronaphthalene-2-aminium chloride] |
| A | – | ≤ 900 | – | NC1(C(=O)O)CCc2ccc(Oc3ccccc3-c3cc(F)cc(Cl)c3Cl)cc2C1 (stereo not shown) [Example 1-67, 2-carboxy-7-((2′,3′-dichloro-5′-fluoro-[1,1′-biphenyl]-2-yl)oxy)-1,2,3,4-tetrahydronaphthalene-2-aminium chloride] |
| A | – | 900 to 5000 | – | Cl.Cl.NC1(C(=O)O)CCc2ccc(Oc3ccccc3-c3ccccn3)cc2C1 (stereo not shown) [Example 1-32, 2-(2-((7-ammonio-7-carboxy-5,6,7,8-tetrahydronaphthalen-2-yl)oxy)phenyl) pyridin-1-ium chloride] |
